Reference: ChEMBL document CHEMBL3880428, “Sulfonamide derivative having PGD2 receptor antagonistic activity” (2012)

Experiments:
Type in all cases: cell-based
HEK293 [1] = assay: Selectivity ratio of IC50 for PGD2 receptor in human platelets to IC50 for human EP2 receptor expressed in HEK293 cells by cAMP accumulation assay
HEK293 [2] = assay: Selectivity ratio of IC50 for PGD2 receptor in human platelets to IC50 for human TP receptor expressed in HEK293 cells by cAMP accumulation assay
HEK293 [3] = assay: Selectivity ratio of IC50 for PGD2 receptor in human platelets to IC50 for human IP receptor expressed in HEK293 cells by cAMP accumulation assay
HEK293 [4] = assay: Selectivity ratio of IC50 for PGD2 receptor in human platelets to IC50 for human FP receptor expressed in HEK293 cells by cAMP accumulation assay
HEK293 [5] = assay: Selectivity ratio of IC50 for PGD2 receptor in human platelets to IC50 for human EP4 receptor expressed in HEK293 cells by cAMP accumulation assay
HEK293 [6] = assay: Selectivity ratio of IC50 for PGD2 receptor in human platelets to IC50 for human EP3 receptor expressed in HEK293 cells by cAMP accumulation assay
HEK293 [7] = assay: Selectivity ratio of IC50 for PGD2 receptor in human platelets to IC50 for human EP1 receptor expressed in HEK293 cells by cAMP accumulation assay

Measured: Ratio IC50

COc1cccc(OC2CCN(S(=O)(=O)c3ccc(OC(C)C)cc3)CC2)c1/C=C/C(=O)O
> 20: all assays above

CC(C)Oc1ccc(S(=O)(=O)N2CCN(c3ccc(C(=O)Nc4nccs4)c(OCC(=O)O)c3)CC2)cc1
> 20: all assays above

CC(C)Oc1ccc(S(=O)(=O)N2CCN(c3ccc(-c4cocn4)c(OCC(=O)O)c3)CC2)cc1
> 20: all assays above

CC(C)Oc1ccc(S(=O)(=O)N2CCN(c3ccc(C(=O)Nc4nncs4)c(OCC(=O)O)c3)CC2)cc1
> 20: all assays above

CC(C)Oc1ccc(S(=O)(=O)N2CCN(c3ccc([N+](=O)[O-])c(NCC(=O)O)c3)CC2)cc1
> 20: all assays above

CC(C)Oc1ccc(S(=O)(=O)N2CCN(c3cc(OCC(=O)O)ccc3Cl)CC2)cc1
> 20: all assays above

CC(C)Oc1ccc(S(=O)(=O)N2CCN(c3cc(Br)cc(OCC(=O)O)c3)CC2)cc1
> 20: all assays above

CC(=O)c1ccc(N2CCN(S(=O)(=O)c3ccc(OC(C)C)cc3)CC2)cc1OCC(=O)O
> 20: all assays above

CC(C)Oc1ccc(S(=O)(=O)N2CCN(c3ccc(NC(=O)c4ccccc4)c(OCC(=O)O)c3)CC2)cc1
> 20: all assays above

CC(C)Oc1ccc(S(=O)(=O)N2CCN(c3ccc(NC(=O)c4cccnc4)c(OCC(=O)O)c3)CC2)cc1
> 20: all assays above

CC(C)Oc1ccc(S(=O)(=O)N2CCN(c3ccc(Br)c(OCC(=O)O)n3)CC2)cc1
> 20: all assays above

CC(C)Oc1ccc(S(=O)(=O)N2CCN(c3ccc(C(=O)NCc4ccccn4)c(OCC(=O)O)c3)CC2)cc1
> 20: all assays above

CC(C)Oc1ccc(S(=O)(=O)N2CCN(c3ccc(OCc4ccoc4)c(OCC(=O)O)c3)CC2)cc1
> 20: all assays above

CC(C)Oc1ccc(S(=O)(=O)N2CCN(c3ccc(OCc4ccccc4)c(OCC(=O)O)c3)CC2)cc1
> 20: all assays above

Cc1cnc(-c2ccc(N3CCN(S(=O)(=O)c4ccc(OC(C)C)cc4)CC3)cc2OCC(=O)O)o1
> 20: all assays above

CC(C)Oc1ccc(S(=O)(=O)N2CCN(c3ccc(C(=O)Nc4ccn(C)n4)c(OCC(=O)O)c3)CC2)cc1
> 20: all assays above

CC(C)Oc1ccc(S(=O)(=O)N2CCN(c3ccc(C#N)c(OCC(=O)O)c3)CC2)cc1
> 20: all assays above

CC[C@@H](C)Oc1ccc(S(=O)(=O)N2CCN(c3ccc(Cl)c(OCC(=O)O)c3)CC2)cc1
> 20: all assays above

CC(C)Oc1ccc(S(=O)(=O)N2CCC(c3ccc(Cl)c(OCC(=O)O)c3)CC2)cc1
> 20: all assays above

Cc1nnc(-c2ccc(N3CCN(S(=O)(=O)c4ccc(OC(C)C)cc4)CC3)cc2OCC(=O)O)s1
> 20: all assays above

CC(C)Oc1ccc(S(=O)(=O)N2CCN(c3ccc4ncn(CC(=O)O)c4c3)CC2)cc1
> 20: all assays above

Cc1nnc(-c2ccc(N3CCN(S(=O)(=O)c4ccc(OC(C)C)cc4)CC3)cc2OCC(=O)O)o1
> 20: all assays above

CC(C)Sc1ccc(S(=O)(=O)N2CCN(c3ccc(Cl)c(OCC(=O)O)c3)CC2)cc1
> 20: all assays above

CC(C)Oc1ccc(S(=O)(=O)N2CCN(c3ccc(Cl)c(OCC(=O)O)c3)CC2)cc1
> 20: all assays above

CC(C)Oc1ccc(S(=O)(=O)N2CCN(c3cc(OCC(=O)O)cc(-c4cccs4)c3)CC2)cc1
> 20: all assays above
